Results: the supplement of paper PMC10307832

What was measured:
Assay in all cases: relative viability (nuclei count vs DMSO), 5 days (fraction); higher = more cells survive
LCLC-103H = system: LCLC-103H
Summary of the method: (§1)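 Relative viability equals treated-well nuclei counts divided by vehicle-well nuclei counts. Counts came from 4× images of lung cancer cell lines grown in 1536-well plates for 5 days after pin-tool dosing on the day after seeding. Dosing used one drug alone or a fixed anchor-drug dose plus five library-drug doses (not always all listed) in √10 steps, and values are medians of duplicate plates.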

NCI-H520 = system: NCI-H520
Summary of the method: as §1

PC-3 [JPC-3] = system: PC-3 [JPC-3]
Summary of the method: as §1

NCI-H1793 = system: NCI-H1793
Summary of the method: as §1

NCI-H838 = system: NCI-H838
Summary of the method: as §1

LOU-NH91 = system: LOU-NH91
Summary of the method: as §1

NCI-H1651 = system: NCI-H1651
Summary of the method: as §1

201T = system: 201T
Summary of the method: as §1

NCI-H23 = system: NCI-H23
Summary of the method: as §1

NCI-H647 = system: NCI-H647
Summary of the method: as §1

LXF-289 = system: LXF-289
Summary of the method: as §1

NCI-H2405 = system: NCI-H2405
Summary of the method: as §1

RERF-LC-KJ = system: RERF-LC-KJ
Summary of the method: as §1

NCI-H2347 = system: NCI-H2347
Summary of the method: as §1

HARA = system: HARA
Summary of the method: as §1

A-427 = system: A-427
Summary of the method: as §1

UMC-11 = system: UMC-11
Summary of the method: as §1

LK-2 = system: LK-2
Summary of the method: as §1

HCC-78 = system: HCC-78
Summary of the method: as §1

LCLC-97TM1 = system: LCLC-97TM1
Summary of the method: as §1

NCI-H1650 = system: NCI-H1650
Summary of the method: as §1

NCI-H522 = system: NCI-H522
Summary of the method: as §1

COR-L23 = system: COR-L23
Summary of the method: as §1

Cc1cn(-c2cc(NC(=O)c3ccc(C)c(Nc4nccc(-c5cccnc5)n4)c3)cc(C(F)(F)F)c2)cn1 [Nilotinib] + O=C(CCCCCCC(=O)Nc1ccccc1)NO [Vorinostat] (partner 1 µM)
relative viability (LCLC-103H; first compound 0.001 µM): 0.74 | relative viability (LCLC-103H; first compound 0.003162 µM): 0.823 | relative viability (LCLC-103H; first compound 0.01 µM): 0.858 | relative viability (LCLC-103H; first compound 0.03162 µM): 0.691 | relative viability (LCLC-103H; first compound 0.1 µM): 0.433 | relative viability (NCI-H520; first compound 0.001 µM): 0.584 | relative viability (NCI-H520; first compound 0.003162 µM): 0.79 | relative viability (NCI-H520; first compound 0.01 µM): 0.81 | relative viability (NCI-H520; first compound 0.03162 µM): 0.617 | relative viability (NCI-H520; first compound 0.1 µM): 0.699 | relative viability (PC-3 [JPC-3]; first compound 0.001 µM): 0.792 | relative viability (PC-3 [JPC-3]; first compound 0.01 µM): 0.668 | relative viability (PC-3 [JPC-3]; first compound 0.03162 µM): 0.691 | relative viability (PC-3 [JPC-3]; first compound 0.1 µM): 0.53 | relative viability (NCI-H1793; first compound 0.001 µM): 0.64 | relative viability (NCI-H1793; first compound 0.003162 µM): 0.841 | relative viability (NCI-H1793; first compound 0.01 µM): 0.688 | relative viability (NCI-H1793; first compound 0.03162 µM): 0.386 | relative viability (NCI-H1793; first compound 0.1 µM): 0.257 | relative viability (NCI-H838; first compound 0.001 µM): 0.693 | relative viability (NCI-H838; first compound 0.003162 µM): 0.783 | relative viability (NCI-H838; first compound 0.01 µM): 0.753 | relative viability (NCI-H838; first compound 0.03162 µM): 0.726 | relative viability (NCI-H838; first compound 0.1 µM): 0.688 | relative viability (LOU-NH91; first compound 0.001 µM): 1.03 | relative viability (LOU-NH91; first compound 0.003162 µM): 0.936 | relative viability (LOU-NH91; first compound 0.01 µM): 0.946 | relative viability (LOU-NH91; first compound 0.03162 µM): 0.898 | relative viability (LOU-NH91; first compound 0.1 µM): 0.882 | relative viability (NCI-H1651; first compound 0.001 µM): 0.531 | relative viability (NCI-H1651; first compound 0.003162 µM): 0.612 | relative viability (NCI-H1651; first compound 0.01 µM): 0.602 | relative viability (NCI-H1651; first compound 0.03162 µM): 0.528 | relative viability (NCI-H1651; first compound 0.1 µM): 0.418 | relative viability (201T; first compound 0.001 µM): 0.931 | relative viability (201T; first compound 0.003162 µM): 1.19 | relative viability (201T; first compound 0.01 µM): 1.22 | relative viability (201T; first compound 0.1 µM): 0.28 | relative viability (NCI-H23; first compound 0.001 µM): 0.48 | relative viability (NCI-H23; first compound 0.003162 µM): 0.438 | relative viability (NCI-H23; first compound 0.01 µM): 0.685 | relative viability (NCI-H23; first compound 0.03162 µM): 0.239 | relative viability (NCI-H23; first compound 0.1 µM): 0.546 | relative viability (NCI-H647; first compound 0.001 µM): 0.433 | relative viability (NCI-H647; first compound 0.003162 µM): 0.671 | relative viability (NCI-H647; first compound 0.01 µM): 0.418 | relative viability (NCI-H647; first compound 0.03162 µM): 0.314 | relative viability (NCI-H647; first compound 0.1 µM): 0.245 | relative viability (LXF-289; first compound 0.001 µM): 0.693 | relative viability (LXF-289; first compound 0.003162 µM): 0.994 | relative viability (LXF-289; first compound 0.01 µM): 0.882 | relative viability (LXF-289; first compound 0.03162 µM): 0.869 | relative viability (LXF-289; first compound 0.1 µM): 0.534 | relative viability (NCI-H2405; first compound 0.001 µM): 0.946 | relative viability (NCI-H2405; first compound 0.003162 µM): 0.927 | relative viability (NCI-H2405; first compound 0.03162 µM): 0.763 | relative viability (NCI-H2405; first compound 0.1 µM): 0.521 | relative viability (RERF-LC-KJ; first compound 0.001 µM): 0.624 | relative viability (RERF-LC-KJ; first compound 0.003162 µM): 0.698 | relative viability (RERF-LC-KJ; first compound 0.01 µM): 0.734 | relative viability (RERF-LC-KJ; first compound 0.03162 µM): 0.568 | relative viability (RERF-LC-KJ; first compound 0.1 µM): 0.453 | relative viability (NCI-H2347; first compound 0.001 µM): 0.601 | relative viability (NCI-H2347; first compound 0.003162 µM): 0.516 | relative viability (NCI-H2347; first compound 0.01 µM): 0.712 | relative viability (NCI-H2347; first compound 0.03162 µM): 0.495 | relative viability (NCI-H2347; first compound 0.1 µM): 0.431 | relative viability (HARA; first compound 0.001 µM): 0.544 | relative viability (HARA; first compound 0.003162 µM): 0.668 | relative viability (HARA; first compound 0.01 µM): 0.507 | relative viability (HARA; first compound 0.03162 µM): 0.401 | relative viability (HARA; first compound 0.1 µM): 0.423 | relative viability (A-427; first compound 0.001 µM): 0.839 | relative viability (A-427; first compound 0.003162 µM): 0.892 | relative viability (A-427; first compound 0.01 µM): 0.935 | relative viability (A-427; first compound 0.03162 µM): 0.963 | relative viability (A-427; first compound 0.1 µM): 0.775 | relative viability (UMC-11; first compound 0.001 µM): 0.359 | relative viability (UMC-11; first compound 0.003162 µM): 0.398 | relative viability (UMC-11; first compound 0.01 µM): 0.346 | relative viability (UMC-11; first compound 0.03162 µM): 0.336 | relative viability (UMC-11; first compound 0.1 µM): 0.458 | relative viability (LK-2; first compound 0.001 µM): 0.261 | relative viability (LK-2; first compound 0.003162 µM): 0.23 | relative viability (LK-2; first compound 0.01 µM): 0.342 | relative viability (LK-2; first compound 0.03162 µM): 0.199 | relative viability (LK-2; first compound 0.1 µM): 0.27 | relative viability (HCC-78; first compound 0.001 µM): 0.483 | relative viability (HCC-78; first compound 0.003162 µM): 0.512 | relative viability (HCC-78; first compound 0.01 µM): 0.553 | relative viability (HCC-78; first compound 0.03162 µM): 0.4 | relative viability (HCC-78; first compound 0.1 µM): 0.565 | relative viability (LCLC-97TM1; first compound 0.001 µM): 0.605 | relative viability (LCLC-97TM1; first compound 0.003162 µM): 0.891 | relative viability (LCLC-97TM1; first compound 0.01 µM): 0.964 | relative viability (LCLC-97TM1; first compound 0.03162 µM): 0.515 | relative viability (LCLC-97TM1; first compound 0.1 µM): 0.102 | relative viability (NCI-H1650; first compound 0.001 µM): 0.49 | relative viability (NCI-H1650; first compound 0.003162 µM): 0.733 | relative viability (NCI-H1650; first compound 0.01 µM): 0.746 | relative viability (NCI-H1650; first compound 0.03162 µM): 0.488 | relative viability (NCI-H1650; first compound 0.1 µM): 0.528 | relative viability (NCI-H522; first compound 0.01 µM): 1.01 | relative viability (NCI-H522; first compound 0.03162 µM): 0.749 | relative viability (NCI-H522; first compound 0.1 µM): 0.786 | relative viability (COR-L23; first compound 0.001 µM): 0.317 | relative viability (COR-L23; first compound 0.003162 µM): 0.347 | relative viability (COR-L23; first compound 0.01 µM): 0.406 | relative viability (COR-L23; first compound 0.03162 µM): 0.373 | relative viability (COR-L23; first compound 0.1 µM): 0.392
